From patent US20150150897A1, “METHODS OF TREATING HEPATITIS C VIRUS INFECTION IN SUBJECTS WITH CIRRHOSIS” (priority 2013, published 2015)

Columns and labels:
[1] = Clinical trials of Compound 1: resistance and tolerability; format: in vivo, human
From the text: Compound 1, is also known as “sofosbuvir” or “SOF”.

[2] = healthy volunteers, cited from earlier work

| Compound | tolerability [1] | increases in Compound 1 exposure from co-administration ([2]; co-administration with GS-5885, GS-9669, and GS-5885+GS-9669) | exposure on concurrent administration of Compound 1 [2] |
| --- | --- | --- | --- |
| CC(C)OC(=O)[C@H](C)N[P@](=O)(OC[C@H]1O[C@@H](n2ccc(=O)[nH]c2=O)[C@](C)(F)[C@@H]1O)Oc1ccccc1 [Compound 1, (S)-isopropyl2-(((S)-(((2R,3R,4R,5R)-5-(2,4-dioxo-3,4-dihydrophyrimidin-1(2H)-yl)-4-fluoro-3-hydroxy-4-methyltetrahydrofuran-2-yl)methoxy)(phenoxy)phosphoryl)amino)propanoate] | well-tolerated | not clinically significant |  |
| COC(=O)N[C@H](C(=O)N1CC2(CC2)C[C@H]1c1ncc(-c2ccc3c(c2)C(F)(F)c2cc(-c4ccc5nc([C@@H]6[C@H]7CC[C@H](C7)N6C(=O)[C@@H](NC(=O)OC)C(C)C)[nH]c5c4)ccc2-3)[nH]1)C(C)C [GS-5885] |  |  | unaffected |
| COC[C@H]1C[C@@H](c2ncc(-c3ccc4c(c3)COc3cc5c(ccc6nc([C@@H]7CC[C@H](C)N7C(=O)[C@@H](NC(=O)OC)C(C)C)[nH]c65)cc3-4)[nH]2)N(C(=O)[C@H](NC(=O)OC)c2ccccc2)C1 [GS-9669] |  |  | unaffected |
